From US20260183295A1, “METHODS AND COMPOSITIONS FOR TREATING CANCER” (Onconova Therapeutics, Inc., priority 2022, published 2026)

Legend:
Test in all cases: CETSA-MS, MDA-MB-231 intact cells
Assay type in all cases: cell-based
Settings in all cases: 2 μM and 20 μM
CST3 = molecular target: T1, CST3 (Homo sapiens, UniProt P01034)
T1 construct: 148 targets unique to Compound 1 in MDA-MB-231 intact cells; endogenous in cells; host or cells: MDA-MB-231
Procedure, shortened: (§1)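 Cells (TNBC line MDA-MB-231, grown 37° C., 5% CO2) split into four arms, incubated, then heat-challenged on a gradient; supernatant proteins precipitated with cold acetone, digested, isobarically labeled, analyzed by MS.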

CAVIN3 = molecular target: T2, CAVIN3 (Homo sapiens, UniProt Q969G5)
T2 construct: endogenous in cells; host or cells: MDA-MB-231
Procedure, shortened: as §1

PIK3C3 = molecular target: T3, PIK3C3 (Homo sapiens, UniProt Q8NEB9)
T3 construct: endogenous in cells; host or cells: MDA-MB-231
T3 sequence (Q8NEB9 whole entry): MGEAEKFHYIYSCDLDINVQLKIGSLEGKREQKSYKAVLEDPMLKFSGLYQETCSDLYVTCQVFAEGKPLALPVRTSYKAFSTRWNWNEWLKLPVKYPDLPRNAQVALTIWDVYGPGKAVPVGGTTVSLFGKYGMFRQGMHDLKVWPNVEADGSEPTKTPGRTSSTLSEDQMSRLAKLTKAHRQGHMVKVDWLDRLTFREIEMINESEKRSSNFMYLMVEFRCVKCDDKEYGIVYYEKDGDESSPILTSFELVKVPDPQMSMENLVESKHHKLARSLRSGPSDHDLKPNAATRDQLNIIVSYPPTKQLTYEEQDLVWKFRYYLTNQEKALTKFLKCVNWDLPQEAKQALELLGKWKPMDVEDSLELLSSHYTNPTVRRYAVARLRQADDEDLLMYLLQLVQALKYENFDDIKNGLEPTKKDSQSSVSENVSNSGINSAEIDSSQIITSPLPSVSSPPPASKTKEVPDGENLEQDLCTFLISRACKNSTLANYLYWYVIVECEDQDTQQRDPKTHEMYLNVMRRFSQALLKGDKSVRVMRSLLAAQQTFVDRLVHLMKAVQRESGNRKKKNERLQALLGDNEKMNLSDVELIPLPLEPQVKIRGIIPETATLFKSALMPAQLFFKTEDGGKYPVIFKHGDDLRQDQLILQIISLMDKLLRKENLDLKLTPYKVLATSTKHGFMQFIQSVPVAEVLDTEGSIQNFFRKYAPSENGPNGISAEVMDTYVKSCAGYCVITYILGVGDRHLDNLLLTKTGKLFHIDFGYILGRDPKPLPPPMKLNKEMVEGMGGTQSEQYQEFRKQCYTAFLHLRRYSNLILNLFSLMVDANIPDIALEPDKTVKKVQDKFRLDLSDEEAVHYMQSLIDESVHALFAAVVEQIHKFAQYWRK
T3 sequence (Q99570 2-1358 partner limits assumed): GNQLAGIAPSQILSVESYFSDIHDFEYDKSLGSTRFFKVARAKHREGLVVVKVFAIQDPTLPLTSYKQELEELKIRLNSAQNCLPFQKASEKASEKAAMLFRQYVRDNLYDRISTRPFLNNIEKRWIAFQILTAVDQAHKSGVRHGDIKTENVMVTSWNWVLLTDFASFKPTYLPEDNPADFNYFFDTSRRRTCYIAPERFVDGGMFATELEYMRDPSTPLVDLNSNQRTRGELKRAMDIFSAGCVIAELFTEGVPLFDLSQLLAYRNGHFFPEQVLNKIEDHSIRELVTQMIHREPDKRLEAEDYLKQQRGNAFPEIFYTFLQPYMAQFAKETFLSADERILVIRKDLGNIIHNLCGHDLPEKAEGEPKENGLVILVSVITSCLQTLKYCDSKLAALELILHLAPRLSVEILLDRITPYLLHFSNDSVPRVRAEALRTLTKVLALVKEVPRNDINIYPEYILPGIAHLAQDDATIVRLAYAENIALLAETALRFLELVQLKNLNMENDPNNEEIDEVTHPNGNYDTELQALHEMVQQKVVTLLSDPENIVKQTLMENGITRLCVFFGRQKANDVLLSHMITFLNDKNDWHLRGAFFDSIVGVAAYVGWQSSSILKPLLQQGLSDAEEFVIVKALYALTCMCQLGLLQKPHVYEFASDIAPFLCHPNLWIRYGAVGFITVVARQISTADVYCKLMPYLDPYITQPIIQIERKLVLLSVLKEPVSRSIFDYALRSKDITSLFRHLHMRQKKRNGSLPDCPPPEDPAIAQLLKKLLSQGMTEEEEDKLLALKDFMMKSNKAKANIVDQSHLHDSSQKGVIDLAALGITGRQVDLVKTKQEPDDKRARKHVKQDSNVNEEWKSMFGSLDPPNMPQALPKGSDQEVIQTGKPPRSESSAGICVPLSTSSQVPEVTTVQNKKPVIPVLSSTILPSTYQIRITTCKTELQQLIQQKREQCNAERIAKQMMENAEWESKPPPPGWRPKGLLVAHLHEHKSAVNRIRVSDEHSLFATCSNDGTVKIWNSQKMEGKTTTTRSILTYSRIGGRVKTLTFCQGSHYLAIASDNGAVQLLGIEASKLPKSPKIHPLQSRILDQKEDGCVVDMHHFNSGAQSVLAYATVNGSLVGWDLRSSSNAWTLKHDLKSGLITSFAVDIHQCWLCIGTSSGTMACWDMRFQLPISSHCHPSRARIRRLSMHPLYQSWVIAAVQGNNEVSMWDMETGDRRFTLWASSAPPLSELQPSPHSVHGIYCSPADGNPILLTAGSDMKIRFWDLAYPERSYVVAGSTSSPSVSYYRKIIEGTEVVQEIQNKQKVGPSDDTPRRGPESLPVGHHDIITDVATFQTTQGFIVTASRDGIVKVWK
Procedure, shortened: as §1

GSK3A = molecular target: T4, GSK3A (Homo sapiens, UniProt P49840)
T4 construct: endogenous in cells; host or cells: MDA-MB-231
T4 sequence (P49840 whole entry): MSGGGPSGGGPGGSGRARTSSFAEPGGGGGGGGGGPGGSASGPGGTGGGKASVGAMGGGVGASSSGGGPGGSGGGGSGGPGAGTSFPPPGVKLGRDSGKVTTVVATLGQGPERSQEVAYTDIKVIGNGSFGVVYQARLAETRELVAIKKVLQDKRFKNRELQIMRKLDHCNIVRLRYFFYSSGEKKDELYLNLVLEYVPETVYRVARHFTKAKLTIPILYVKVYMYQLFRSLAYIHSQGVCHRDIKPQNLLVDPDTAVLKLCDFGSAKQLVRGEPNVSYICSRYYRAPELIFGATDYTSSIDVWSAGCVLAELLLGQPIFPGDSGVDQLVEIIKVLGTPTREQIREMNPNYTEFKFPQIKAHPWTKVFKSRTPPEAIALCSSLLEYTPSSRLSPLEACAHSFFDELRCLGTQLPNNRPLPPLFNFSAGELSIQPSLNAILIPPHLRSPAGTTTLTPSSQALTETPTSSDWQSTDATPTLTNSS
Procedure, shortened: as §1

LMAN2 = molecular target: T5, LMAN2 (Homo sapiens, UniProt Q12907)
T5 construct: endogenous in cells; host or cells: MDA-MB-231
Procedure, shortened: as §1

TAF15 = molecular target: T6, TAF15 (Homo sapiens, UniProt Q92804)
T6 construct: endogenous in cells; host or cells: MDA-MB-231
Procedure, shortened: as §1

AGRN = molecular target: T7, AGRN (Homo sapiens, UniProt O00468)
T7 construct: endogenous in cells; host or cells: MDA-MB-231
Procedure, shortened: as §1

SART3 = molecular target: T8, SART3 (Homo sapiens, UniProt Q15020)
T8 construct: endogenous in cells; host or cells: MDA-MB-231
Procedure, shortened: as §1

DHX9 = molecular target: T9, DHX9 (Homo sapiens, UniProt Q08211)
T9 construct: 148 targets unique to Compound 1 in MDA-MB-231 intact cells; endogenous in cells; host or cells: MDA-MB-231
T9 sequence (Q08211 whole entry): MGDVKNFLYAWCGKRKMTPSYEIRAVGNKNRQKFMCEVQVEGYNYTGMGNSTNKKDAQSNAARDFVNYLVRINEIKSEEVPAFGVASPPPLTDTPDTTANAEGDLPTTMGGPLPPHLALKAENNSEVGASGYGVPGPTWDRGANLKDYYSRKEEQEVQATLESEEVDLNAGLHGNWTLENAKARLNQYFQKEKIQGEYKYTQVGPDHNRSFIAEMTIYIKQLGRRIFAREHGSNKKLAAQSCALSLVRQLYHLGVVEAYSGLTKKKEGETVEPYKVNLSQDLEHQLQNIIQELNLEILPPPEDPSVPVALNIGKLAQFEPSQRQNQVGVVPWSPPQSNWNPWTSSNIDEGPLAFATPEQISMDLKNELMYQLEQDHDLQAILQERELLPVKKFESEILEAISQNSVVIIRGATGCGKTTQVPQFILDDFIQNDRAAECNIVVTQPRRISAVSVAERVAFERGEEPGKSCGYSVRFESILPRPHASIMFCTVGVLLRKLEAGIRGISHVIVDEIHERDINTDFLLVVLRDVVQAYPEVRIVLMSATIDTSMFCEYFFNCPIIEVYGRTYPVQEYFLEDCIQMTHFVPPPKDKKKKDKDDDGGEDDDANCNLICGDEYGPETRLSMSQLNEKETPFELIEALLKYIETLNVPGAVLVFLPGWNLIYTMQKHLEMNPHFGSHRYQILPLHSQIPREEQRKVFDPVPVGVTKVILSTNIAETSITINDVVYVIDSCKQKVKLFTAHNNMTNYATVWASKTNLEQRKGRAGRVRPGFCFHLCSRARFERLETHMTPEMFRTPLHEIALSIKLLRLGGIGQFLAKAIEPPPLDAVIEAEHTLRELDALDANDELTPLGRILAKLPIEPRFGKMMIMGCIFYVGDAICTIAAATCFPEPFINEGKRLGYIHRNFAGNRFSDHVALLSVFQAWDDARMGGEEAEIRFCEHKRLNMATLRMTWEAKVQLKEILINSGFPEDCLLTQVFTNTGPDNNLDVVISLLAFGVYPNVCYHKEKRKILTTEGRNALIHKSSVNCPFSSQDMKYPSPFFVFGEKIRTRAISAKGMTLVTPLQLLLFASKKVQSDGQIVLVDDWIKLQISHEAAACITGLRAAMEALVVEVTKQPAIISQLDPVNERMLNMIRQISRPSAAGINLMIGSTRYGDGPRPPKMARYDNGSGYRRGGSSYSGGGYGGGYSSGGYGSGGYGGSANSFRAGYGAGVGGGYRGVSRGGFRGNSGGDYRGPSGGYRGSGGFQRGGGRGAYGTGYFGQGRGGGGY
Procedure, shortened: as §1

PHF8 = molecular target: T10, PHF8 (Homo sapiens, UniProt Q9UPP1)
T10 construct: endogenous in cells; host or cells: MDA-MB-231
Procedure, shortened: as §1

SYNCRIP = molecular target: T11, SYNCRIP (Homo sapiens, UniProt O60506)
T11 construct: endogenous in cells; host or cells: MDA-MB-231
Procedure, shortened: as §1

HNRNPUL2 = molecular target: T12, HNRNPUL2 (Homo sapiens, UniProt Q1KMD3)
T12 construct: endogenous in cells; host or cells: MDA-MB-231
Procedure, shortened: as §1

PIP4P2 = molecular target: T13, PIP4P2 (Homo sapiens, UniProt Q8N4L2)
T13 construct: endogenous in cells; host or cells: MDA-MB-231
Procedure, shortened: as §1

SMAD1 = molecular target: T14, SMAD1 (Homo sapiens, UniProt Q15797)
T14 construct: endogenous in cells; host or cells: MDA-MB-231
Procedure, shortened: as §1

CDK7 = molecular target: T15, CDK7 (Homo sapiens, UniProt P50613)
T15 construct: endogenous in cells; host or cells: MDA-MB-231
Procedure, shortened: as §1

HNRNPA2B1 = molecular target: T16, HNRNPA2B1 (Homo sapiens, UniProt P22626)
T16 construct: 148 targets unique to Compound 1 in MDA-MB-231 intact cells; endogenous in cells; host or cells: MDA-MB-231
Procedure, shortened: as §1

FUBP3 = molecular target: T17, FUBP3 (Homo sapiens, UniProt Q96I24)
T17 construct: 148 targets unique to Compound 1 in MDA-MB-231 intact cells; endogenous in cells; host or cells: MDA-MB-231
Procedure, shortened: as §1

SNX30 = molecular target: T18, SNX30 (Homo sapiens, UniProt Q5VWJ9)
T18 construct: endogenous in cells; host or cells: MDA-MB-231
T18 sequence (Q5VWJ9 whole entry): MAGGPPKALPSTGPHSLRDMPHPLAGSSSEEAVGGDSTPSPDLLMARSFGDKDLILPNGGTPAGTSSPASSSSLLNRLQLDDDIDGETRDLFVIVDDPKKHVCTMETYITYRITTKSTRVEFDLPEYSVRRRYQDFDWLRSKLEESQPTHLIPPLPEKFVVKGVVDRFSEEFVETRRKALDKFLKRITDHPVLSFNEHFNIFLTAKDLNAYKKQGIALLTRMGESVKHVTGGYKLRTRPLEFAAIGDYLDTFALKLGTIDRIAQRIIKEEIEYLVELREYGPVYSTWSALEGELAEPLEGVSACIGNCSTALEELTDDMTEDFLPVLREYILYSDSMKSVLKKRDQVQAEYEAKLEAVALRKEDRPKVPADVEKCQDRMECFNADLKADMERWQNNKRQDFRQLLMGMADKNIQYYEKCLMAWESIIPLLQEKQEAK
Procedure, shortened: as §1

MRPL55 = molecular target: T19, MRPL55 (Homo sapiens, UniProt Q7Z7F7)
T19 construct: endogenous in cells; host or cells: MDA-MB-231
Procedure, shortened: as §1

METTL18 = molecular target: T20, METTL18 (Homo sapiens, UniProt O95568)
T20 construct: endogenous in cells; host or cells: MDA-MB-231
Procedure, shortened: as §1

JMY = molecular target: T21, JMY (Homo sapiens, UniProt Q8N9B5)
T21 construct: endogenous in cells; host or cells: MDA-MB-231
Procedure, shortened: as §1

PUS7L = molecular target: T22, PUS7L (Homo sapiens, UniProt Q9H0K6)
T22 construct: endogenous in cells; host or cells: MDA-MB-231
Procedure, shortened: as §1

MAMDC2 = molecular target: T23, MAMDC2 (Homo sapiens, UniProt Q7Z304)
T23 construct: endogenous in cells; host or cells: MDA-MB-231
Procedure, shortened: as §1

MATR3 = molecular target: T24, MATR3 (Homo sapiens, UniProt P43243)
T24 construct: endogenous in cells; host or cells: MDA-MB-231
Procedure, shortened: as §1

ESYT1 = molecular target: T25, ESYT1 (Homo sapiens, UniProt Q9BSJ8)
T25 construct: 148 targets unique to Compound 1 in MDA-MB-231 intact cells; endogenous in cells; host or cells: MDA-MB-231
Procedure, shortened: as §1

ADAR = molecular target: T26, ADAR (Homo sapiens, UniProt P55265)
T26 construct: endogenous in cells; host or cells: MDA-MB-231
Procedure, shortened: as §1

GSKIP = molecular target: T27, GSKIP (Homo sapiens, UniProt Q9P0R6)
T27 construct: 148 targets unique to Compound 1 in MDA-MB-231 intact cells; endogenous in cells; host or cells: MDA-MB-231
T27 sequence (Q9P0R6 whole entry): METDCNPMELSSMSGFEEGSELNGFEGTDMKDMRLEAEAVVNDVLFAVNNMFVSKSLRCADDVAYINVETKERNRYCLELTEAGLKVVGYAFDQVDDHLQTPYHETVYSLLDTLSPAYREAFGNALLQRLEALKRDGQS
Procedure, shortened: as §1

LRCH4 = molecular target: T28, LRCH4 (Homo sapiens, UniProt O75427)
T28 construct: endogenous in cells; host or cells: MDA-MB-231
Procedure, shortened: as §1

HSPA13 = molecular target: T29, HSPA13 (Homo sapiens, UniProt P48723)
T29 construct: endogenous in cells; host or cells: MDA-MB-231
Procedure, shortened: as §1

RAE1 = molecular target: T30, RAE1 (Homo sapiens, UniProt P78406)
T30 construct: endogenous in cells; host or cells: MDA-MB-231
Procedure, shortened: as §1

COL2A1 = molecular target: T31, COL2A1 (Homo sapiens, UniProt P02458)
T31 construct: endogenous in cells; host or cells: MDA-MB-231
Procedure, shortened: as §1

AP2S1 = molecular target: T32, AP2S1 (Homo sapiens, UniProt P53680)
T32 construct: endogenous in cells; host or cells: MDA-MB-231
Procedure, shortened: as §1

MAP2K5 = molecular target: T33, MAP2K5 (Homo sapiens, UniProt Q13163)
T33 construct: endogenous in cells; host or cells: MDA-MB-231
Procedure, shortened: as §1

CAVIN1 = molecular target: T34, CAVIN1 (Homo sapiens, UniProt Q6NZI2)
T34 construct: endogenous in cells; host or cells: MDA-MB-231
T34 sequence (Q6NZI2 whole entry): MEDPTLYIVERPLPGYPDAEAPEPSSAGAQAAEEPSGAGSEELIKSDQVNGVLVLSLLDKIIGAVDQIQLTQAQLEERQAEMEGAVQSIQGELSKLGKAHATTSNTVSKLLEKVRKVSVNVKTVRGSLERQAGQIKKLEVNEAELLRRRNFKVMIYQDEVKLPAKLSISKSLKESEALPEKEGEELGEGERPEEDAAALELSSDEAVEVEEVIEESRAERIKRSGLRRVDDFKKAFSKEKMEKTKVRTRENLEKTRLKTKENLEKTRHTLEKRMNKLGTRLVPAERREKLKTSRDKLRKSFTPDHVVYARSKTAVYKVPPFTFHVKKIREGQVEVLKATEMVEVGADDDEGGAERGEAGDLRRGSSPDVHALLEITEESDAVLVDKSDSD
Procedure, shortened: as §1

RNF5 = molecular target: T35, RNF5 (Homo sapiens, UniProt Q99942)
T35 construct: endogenous in cells; host or cells: MDA-MB-231
Procedure, shortened: as §1

SNX6 = molecular target: T36, SNX6 (Homo sapiens, UniProt Q9UNH7)
T36 construct: endogenous in cells; host or cells: MDA-MB-231
Procedure, shortened: as §1

Measured: Group (CETSA-MS thermal shift)

CN1CCN(c2ccc(Nc3ncc4cc(C#N)c(=O)n(C5CCCC5)c4n3)cc2)CC1 [Compound 1, 8-cyclopentyl-2-((4-(4-methylpiperazin-1-yl)phenyl)amino)-7-oxo-7,8-dihydropyrido[2,3-d]pyrimidine-6-carbonitrile]
Destabilization: SART3 | SMAD1 | CDK7 | SNX30 | PUS7L | AP2S1 | MAP2K5 | SNX6
Stabilization: all other assays above
